Point of comparison: COC(=O)C1=C(C)NC(C)=C(C(=O)O)C1c1ccccc1Cl (stereo not given), melting point 210 °C. Against it:
- COc1cc(C=C2C(=O)CCc3c2ccc(OC)c3OC)c([N+](=O)[O-])cc1OC — lower, 70 to 72 °C
- NC(=O)N(O)CCNC(=O)COc1cccc(Oc2ccccc2)c1 — lower, 153 to 155 °C
- Cc1ccc(-c2nc3ccc(C#N)cn3c2CN(C)C(=O)CC(C)C)cc1 — lower, 151 to 153 °C
- O=C(ON1C(=O)CCC1=O)c1ccco1 — lower, 126 to 127 °C
- Nc1nc2c(s1)CCN(CC=Cc1ccsc1)CC2 — lower, 128 to 132 °C
- c1ccc(N2CCOCC2)c(N=C2NCCN2)c1 — lower, 185 to 186 °C
- CCC(=O)N1c2ccccc2CC1C(=O)O (stereo not given) — lower, 173 to 175 °C
- CC(=O)N1CCc2cc(C(O)CN(Cc3ccccc3)Cc3ccccc3)ccc21 (stereo not given) — lower, 116 °C
- COc1cc(NN)c(F)cc1C#N — lower, 155 to 156 °C
- CC(C)Oc1ccc2c(c1)N(C)C(=O)N(c1ccc(C(F)(F)F)cc1)S2(=O)=O — lower, 158 to 160 °C
- CCCc1c(OCCCCCc2c(Cl)c(Cl)cc(OC)c2OC)ccc(C(=O)OC)c1O — lower, 113 to 115 °C
- Cn1c(=O)c2c(Cl)cc(Cl)cc2n(Cc2ccccc2)c1=O — lower, 166 to 169 °C
- COc1ccc(NC(C)CC(=O)NC(=O)OC(C)(C)C)cc1 (stereo not given) — lower, 70 to 71 °C
- COCc1cc(-c2nc(-c3cnc(N)c(C)c3)no2)ccc1-c1ccccc1F — lower, 162 to 164 °C
- O=S(=O)(Nc1ccccc1O)c1cc(S(=O)(=O)Nc2ccccc2O)c2cc(O)ccc2c1 — lower, 118 to 120 °C
- Oc1ccc2c(c1)CCCC(c1ccccc1)=C2c1ccc(OCCCCCCl)cc1 — lower, 200 to 202 °C
- COC(=O)c1ccc(Cn2nc(C(C)(C)C)cc2C(C)(C)C)cc1 — lower, 135 to 136 °C
- CC(CC(C(=O)N(C)C)(c1ccccc1)c1ccccc1)N1CCC(NC(=O)c2cccc(C(F)(F)F)c2)C(O)C1 (stereo not given) — lower, 141 °C
- O=C(CCCC(=O)N1CCC[C@H]1C(=O)O)c1ccccc1 — lower, 102 to 105 °C
- NC(=O)C1CCc2[nH]c3ccc(F)c(Cl)c3c2C1 (stereo not given) — higher, 226 to 227 °C
- Cc1nnc2c3c(c(Cl)nn12)C1CCC3CC1 — lower, 178 to 179 °C
- COCCc1nc2c(N)nc3ccccc3c2n1CCCCNC(=O)c1ccc(-n2cccc2)cc1 — lower, 173 to 175 °C
- Cc1ccc2nc(C(=O)Nc3ccccn3)[nH]c2c1 — higher, 230 °C
- On1nnc2ccc(C3CCCc4cncn43)cc21 (stereo not given) — higher, 279 °C
- CNC(=O)C(C)Oc1ncn(-c2ccc(Br)cc2)n1 (stereo not given) — lower, 176 to 178 °C
- CC1=C(/C=C/C(C)=C/C=C/C(C)=C\C(=O)O)C(C)(C)C(=O)CC1 — lower, 178 to 179 °C
- O=C(O)c1cccc(-c2cc(-c3ccc(F)cc3)[nH]n2)c1 — higher, 270 to 272 °C
- COc1ccccc1CSc1c(O)cc(-c2ccccc2)oc1=O — lower, 152 to 153 °C
- CC(=O)Nc1cccc(C(=O)N2CCN(CCc3ccc(Cl)cc3)CC2)c1 — lower, 101 to 107 °C
- Nc1ncc(-c2cnc3ccc(-c4ccc(OCC5(NC(=O)OCc6ccccc6)COC5)cc4)nn23)cc1C(F)(F)F — lower, 202 to 203 °C
- CSC(Nc1cccnc1)=C(C#N)C#N — lower, 180 to 181 °C
- CS(=O)(=O)c1ccccc1-c1cc(F)cc(OCc2ccc3c(-c4ccoc4)cc(C#N)nc3c2)c1 — lower, 186 to 187 °C
- CCOCc1nc2c(N)nc3ccccc3c2n1CC1(OCCS(C)(=O)=O)CCCC1 — lower, 163 to 165 °C
- CC(C)C1(C)N=C(c2cc3c(nc2C(=O)O)COC3)NC1=O (stereo not given) — lower, 115 to 118 °C
- C=CSc1nc(-c2ccc(OC)cc2)c(-c2ccc(OC)cc2)[nH]1 — lower, 114 to 115 °C
- COC(=O)C(NS(=O)(=O)c1ccc(-c2ccc(NC(=O)c3cc4ccccc4o3)cc2)cc1)C(C)C (stereo not given) — lower, 195 to 200 °C
- CC(c1ccc2c(c1)CCC(=O)N2)n1ccnc1 (stereo not given) — lower, 185 °C
- Cn1nc(Cc2ccc(O)c(Cl)c2Cl)c(Cl)c1OC(F)F — lower, 127 to 128 °C
- O=C(N[C@H]1CCN(CCc2ccc(F)cc2)C1)n1c2ccccc2c2ccccc21 — lower, 107 to 108 °C
- CC1(C)OC(c2ccc(S(C)(=O)=O)cc2)=C(c2cccc(C(F)(F)F)c2)C1=O — lower, 115 to 116 °C
- CN1CCN(C)C1=Nc1ccccc1N1CCOCC1 — lower, 133 to 134 °C
- COc1ccc(C(O)(c2ccc3nc(Cl)nc(-c4cccc(Cl)c4)c3c2)c2cncn2C)cc1 (stereo not given) — lower, 144 °C
- Cc1cccc(CN(CCC(=O)O)c2nc(NC(=O)Nc3ccccc3O)nc(Nc3ccccc3-c3ccccc3)n2)c1 — lower, 122 to 124 °C
- CCOC(=O)CON(C)C(=S)Nc1ccc2c(c1)CCC2 — lower, 69 to 71 °C
- Clc1ncnc2[nH]nc(-c3ccccc3)c12 — higher, > 250 °C
- O=C(O)[C@@H]1CCCN1S(=O)(=O)c1cc(Cl)cc(Cl)c1O — lower, 107 °C
- COc1ccc(-c2cc(-c3ccc(OC)c(OC)c3)c(C#N)c(C)n2)cc1 — lower, 187 to 188 °C
- CCOC1CN(Cc2cccc(OC)c2)Cc2cc(OC)c(O)cc21 (stereo not given) — lower, 134 to 135 °C
- CCONC(=O)c1cc(Br)c(Br)s1 — lower, 117 to 119 °C
- OCc1cccc(-c2coc(-c3cn([C@H]4CN5CCC4CC5)nn3)c2)c1 — higher, 212 °C
- O=c1nc(-c2ccccc2)c2ccsc2[nH]1 — higher, 247 to 249 °C
- CCCC(c1ccc(C(=O)Nc2ccccc2)cc1OCc1ccc(Br)cc1)n1ccnc1 (stereo not given) — lower, 168 °C
- Cc1ccc(CC2(O)CCN(CC3Cc4cc(O)ccc4N3)CC2)cc1 (racemic) — lower, 90 to 94 °C
- CS(=O)(=O)c1ccc(-c2cnn(-c3ccc(F)cc3)c(=O)c2OCC2CC2)cc1 — lower, 166 to 167 °C
- O=C(Nc1ccc(-c2ccccc2)cc1)c1ccc2n1Cc1ccccc1N(C(=O)COc1ccc(Cl)cc1)C2 — lower, 201 to 202 °C
- COc1cc(Nc2nccc(-c3ccc[nH]3)n2)cc(OC)c1OC — lower, 150 °C
- N#CC(CCOc1ccccc1)(Cn1cncn1)c1ccccc1 (stereo not given) — lower, 64 to 66 °C
- CCOC(=O)C1CCN(c2nc(COc3ccc(C=O)cc3OC)c(C)s2)CC1 — lower, 97 to 98 °C
- CC(C)(C)OC(=O)N1C(=O)C(C2=COc3ccccc3O2)=C(c2cn(C(=O)OC(C)(C)C)c3cc(OCc4ccccc4)ccc23)C1=O — lower, 81 °C
- CC(C)(C)CC(=O)Nc1ccc2ncnc(N)c2c1 — higher, 273 to 274 °C
- CC(=O)C1C(=O)N(C(=O)NC(=O)c2ccccc2)c2ccccc21 (stereo not given) — lower, 198 °C
- CCCCc1c2c(nc3c1CCc1cc4nc(C#N)c(N)cc4nc1-3)C(=O)CCC2 — higher, > 300 °C
- O=C(Nc1ccc(F)cc1)NN1CC=C(c2ccccc2)CC1 — not separable, 200 to 212 °C
- COC(=O)Nc1cn2cc(S(=O)c3ccccn3)ccc2n1 (stereo not given) — higher, 231 to 235 °C
- Cc1oc(-c2ccccc2)nc1COc1cc(COc2nn(C)cc2CC(=O)O)ccn1 — lower, 126 to 127 °C
- NS(=O)(=O)c1ccc(-c2coc(=O)n2-c2ccc(F)cc2)cc1 — higher, 211 to 213 °C
- O=C(Nc1ccc(-c2cnc(-c3ccc(NC(=O)C45CC6CC(CC(C6)C4)C5)cc3)[nH]2)cc1)c1cccnc1 — higher, 251 to 252 °C
- Cc1nc2n(n1)C(N1CCN(C)CC1)=Nc1ccccc1C2 — lower, 185 to 187 °C
- CCOC(=O)c1c(-c2ccccc2)cn2ccccc12 — lower, 101 to 103 °C

— a melting point compilation (Tetko et al.; mined from patent text by program, amines drawn as free bases though some values may be those of a salt)
